According to patent US10258639B2, “Methods for treating insulin resistance and for sensitizing patients to GLP1 agonist therapy” (Research Development Foundation, priority 2014, dated 2019):

System: INS1 cells
Test: RNAseq of INS1 cells infected with ACREB compared to GFP and stimulated with FSK
Assay type: cell-based, rat
Parameters: Irs2 RNAseq value, FSK / MafA RNAseq value, FSK / Nr4a2 RNAseq value, FSK / Diras2 RNAseq value, FSK: unit not given here
Conditions: for Diras2 fold induction / Irs2 fold induction / MafA fold induction / Nr4a2 fold induction: FSK vs control; for Diras2 RNAseq value, FSK / Irs2 RNAseq value, FSK / MafA RNAseq value, FSK / Nr4a2 RNAseq value, FSK: stimulated with FSK
Description: Transcriptome-wide studies were performed to identify CREB target genes that promote insulin expression and secretion. […] INS-1 insulinoma cells were cultured in RPMI (corning cellgro) containing 10% fetal bovine serum (Gemini Bio Products), 100 μg/mL penicillin-streptomycin and 1 mM sodium pyruvate (corning cellgro). MIN6 cells were grown in DMEM (corning cellgro) with 10% FBS, 100 μg/mL penicillin-streptomycin and 70 uM beta-mercaptoethanol. For chronic glucose experiments, cells were maintained under low (2.8 mM) or high (20 mM) glucose for 3 days. Exendin-4 (10 nM), Forskolin (10 μM), KCl (40 mM), DMOG (1 mM) and rapamycin (50 nM) were added to cells as indicated. Cellular cAMP levels were measured using an ELISA kit (Cayman Chemical Company) according to manufacturer's instructions. Total RNAs from cells or primary islets were extracted using Trizol and cDNA was generated using the Transcriptor First Strand cDNA Synthesis kit (Roche Applied Science). cDNAs were quantified on a lightcycler 480 instrument (Roche Applied Science). Gene expression data were presented relative to the expression of housekeeping gene L32 (rat samples) and 18S (mouse and human islets). RNA-Seq libraries were prepared using the mRNA isolation protocol and the NEBNext-Ultra kits from New England Biolabs following the manufacturer's protocols. Libraries were quantitated by Qubit (Invitrogen), and run on a MiSeq instrument with paired-end 75 bp reads using v3 chemistry (Illumina) Data were analyzed by tophat2 and cuffdiff against the mouse mm10 genome build. The GEO accession number for RNAseq studies reported in the paper is GSE60158.

C=C[C@@]1(C)CC(=O)[C@]2(O)[C@@]3(C)[C@@H](O)CCC(C)(C)[C@@H]3[C@H](O)[C@H](OC(C)=O)[C@@]2(C)O1 [FSK, Forskolin]
Diras2 fold induction (INS1 cells infected with ACREB): 1.7 fold
Irs2 fold induction (INS1 cells infected with ACREB): 2.3 fold
MafA fold induction (INS1 cells infected with ACREB): 3.7 fold
Nr4a2 fold induction (INS1 cells infected with ACREB): 6.3 fold
Diras2 RNAseq value, FSK (INS1 cells infected with ACREB): 109.5
Irs2 RNAseq value, FSK (INS1 cells infected with ACREB): 38.8
MafA RNAseq value, FSK (INS1 cells infected with ACREB): 90.2
Nr4a2 RNAseq value, FSK (INS1 cells infected with ACREB): 5.5
Diras2 fold induction (INS1 cells infected with GFP): 11.5 fold
Irs2 fold induction (INS1 cells infected with GFP): 5.6 fold
MafA fold induction (INS1 cells infected with GFP): 8.7 fold
Nr4a2 fold induction (INS1 cells infected with GFP): 56.6 fold
Diras2 RNAseq value, FSK (INS1 cells infected with GFP): 519.7
Irs2 RNAseq value, FSK (INS1 cells infected with GFP): 289.9
MafA RNAseq value, FSK (INS1 cells infected with GFP): 474.4
Nr4a2 RNAseq value, FSK (INS1 cells infected with GFP): 106.5
